From US8759536B2, “Rhodanine derivatives, method for preparing same, and pharmaceutical composition for the prevention or treatment of aids containing the rhodanine derivatives as active ingredients” (Avixgen Inc., priority 2010, dated 2014)

System: HIV
Assay: Assay for inhibitory activity against HIV (p24 ELISA, infected MT-4 cells)
Type: cell-based
Details: Human immunodeficiency virus 1, MT4; MT-4 cells infected with pNL4-3-derived HIV; p24 ELISA after 48 + 48 hrs; read-out: Conc. for Inhibition of HIV Activity (IC50)
Procedure: The rhodanine derivatives of the present invention were assayed for inhibitory activity against HIV as follows.
A pNL4-3 vector carrying an HIV genome was transduced into 293FT cells. […] 293FT cells were seeded at a density of 3.0×10^5 cells/well into 6-well plates containing antibiotic-free DMEM supplemented with 10% FBS and grown for 48 hrs. Upon 90-95% confluency, the transduction was performed.
The DNA (pNL4-3) was added at a final concentration of 10 ng/mL to 250 μL of the reduced serum medium Opti-MEM I (GIBCO™, USA). Separately, 4 μL of Lipofectamine™ 2000 (Invitrogen, USA) was mixed with 250 μL of Opti-MEM I (GIBCO™), and incubated at room temperature for 5 min. The DNA (pNL4-3) was mixed at a ratio of 1:2 with the lipofectamine and reacted at room temperature for 20 min to form a DNA-lipofectamine complex. After removal of the medium from the cell culture, the mixture containing the DNA-lipofectamine complex was added to the cells and incubated for 4 hrs in a CO2 incubator. Then, the cell culture medium was replaced with a fresh antibiotic-free, 10% FBS-supplemented DMEM, followed by incubation for an additional 48 hrs. The HIV-infected cell culture was centrifuged at 1,500 rpm for 5 min to give a virus supernatant.
MT-4 cells were plated at a density of 1.0×10^6 cells/mL into 6-well plates containing RPMI supplemented with 10% FBS and incubated for 4 hrs before infection at a ratio of 1:1 with the virus supernatant. The cells were incubated for 48 hrs in a CO2 incubator, after which the culture medium was replaced with a fresh one. Again, incubation was continued for an additional 72 hrs to amplify the virus. After centrifugation at 1,500 rpm for 5 min, the virus supernatant thus obtained was examined for virus density using a Virononstika HIV-1 Antigen Microelisa system kit (bioMerieux, Inc. Netherland).
2. Assay for Inhibitory Activity Against HIV
The rhodanine derivatives prepared in Examples 1 to 38 were dissolved in DMSO to prepare respective 10 mM or 20 mM stocks, and stored at −20° C. The stocks were diluted to a starting concentration of 200 μM in DMSO before use in experiments.
MT-4 cells were suspended at a density of 4×10^5 cells in 200 μL of RPMI 1640 (Gibco, 10% FBS) per well of 24-well plates, and infected with 200 μL of a virus supernatant containing 2×10^5 pg/mL to give a total volume of 400 μL. After the stocks of the rhodanine derivatives were […] diluted to 200 μM in DMSO, 2 μL of each dilution was added to the cells to a final concentration of 1 μM or less. For a positive control, 10 μM AZT (azidothymidine, Sigma, USA) was used at a final concentration of 50 nM while DMSO was used at a final concentration of 0.5% as a negative control. The cells were cultured for 48 hrs in a CO2 incubator (37° C., 5% CO2), and the culture medium was replaced by RPMI 1640 containing the rhodanine derivative at a final concentration of 1 μM, followed by incubation for an additional 48 hrs. Virus soups were separated from cells by centrifugation at 1,500 rpm for 5 min and then at 13, 000 rpm for 5 min. ELISA for p24 concentrations was carried out using a Virononstika HIV-1 Antigen Microelisa system kit (bioMerieux, Inc. Netherland) to determine the inhibitory activity of each of the rhodanine derivatives against HIV.

| Structure (SMILES) | IC50 |
| --- | --- |
| O=C1C(=Cc2ccc(-c3ccc([N+](=O)[O-])cc3)o2)SC(=S)N1c1cccc(F)c1 [Example 13, 3-(3-fluoro-phenyl)-5-[5-(4-nitro-phenyl)-furan-2-ylmethylene]-2-thioxo-thiazolidin-4-one] | 0.5 µM |
| CCCOC(=O)c1cc(-c2ccc(/C=C3/SC(=S)NC3=O)o2)ccc1Cl [Example 29, 2-chloro-5-[5-(4-oxo-2-thioxo-thiazolidin-5-ylidenemethyl)-furan-2-yl]-benzoic acid propyl ester] | 0.5 µM |
| Cc1ccc(N2C(=O)/C(=C/c3ccc(-c4cccc([N+](=O)[O-])c4)o3)SC2=S)c(C)c1 [Example 1, 3-(2,4-Dimethyl-phenyl)-5-[5-(3-nitro-phenyl)-furan-2-ylmethylene]-2-thioxo-thiazolidin-4-one] | 0.8 µM |
| O=C(O)CN1C(=O)/C(=C/c2ccc(-c3cccc([N+](=O)[O-])c3)o2)SC1=S [Example 38, {5-[5-(3-nitro-phenyl)-furan-2-ylmethylene]-4-oxo-2-thioxo-thiazolidin-3-yl}-acetic acid] | 0.75 µM |
| O=C1/C(=C/c2ccc(-c3ccc(Cl)cc3Cl)o2)SC(=S)N1c1cccc(F)c1 [Example 8, 5-[5-(2,4-dichloro-phenyl)-furan-2-ylmethylene]-3-(3-fluoro-phenyl)-2-thioxo-thiazolidin-4-one] | 0.5 µM |
| O=C1C(=Cc2ccc(-c3cc([N+](=O)[O-])ccc3Br)o2)SC(=S)N1c1ccc(I)cc1 [Example 16, 5-[5-(2-bromo-5-nitro-phenyl)-furan-2-ylmethylene]-3-(4-iodo-phenyl)-2-thioxo-thiazolidin-4-one] | 0.5 µM |
| CC(=O)CCN1C(=O)/C(=C/c2ccc(-c3ccc(Br)cc3)o2)SC1=S [Example 5, 5-[5-(4-bromo-phenyl)-furan-2-ylmethylene]-3-(3-oxo-butyl)-2-thioxo-thiazolidin-4-one] | 1 µM |
| COc1ccc(-c2ccc(/C=C3\SC(=S)N(CC(=O)O)C3=O)o2)c([N+](=O)[O-])c1 [Example 21, {5-[5-(4-methoxy-2-nitro-phenyl)-furan-2-ylmethylene]-4-oxo-2-thioxo-thiazolidin-3-yl}-acetic acid] | 1 µM |
| CC(C)OC(=O)c1ccc(-c2ccc(/C=C3/SC(=S)NC3=O)o2)cc1 [Example 23, 4-[5-(4-oxo-2-thioxo-thiazolidin-5-ylidenemethyl)-furan-2-yl]-benzoic acid isopropylester] | 0.4 µM |
